Results as given in patent US6984659B2, “2-pyrrolidinone derivatives substituted at position 4 for reducing the extracellular glutamate level” (priority 1997, dated 2006).
Where “and” joins values, the source holds several entries; their conditions need not be identical. Equal values may be shown once.

Tests used:
[1] = tested on: extracellular glutamate level; assay: superfusion experiments on rat brain slices (striatum), glutamate in superfusate by HPLC; type: cell-based
Procedure: A solution of gabapentin (100 μM) in physiological buffer (composition below) with a pH of 7.4 was prepared and irradiated with ultraviolet light (260 and 330 nanometers) at 37° C. for two hours. As described in Kearney A. S. et al., International Journal of Pharmaceutics, 78 (1992), 25–34, this slowly produces the lactam 8-azaspiro[5,4]decan-9-one. Because of the slow reaction rate, a yield of about 1% is assumed in accordance with Kearney et al. (1992), which corresponds to a 1 μM solution.
The activity of this solution in reducing the extracellular glutamate level was shown by means of superfusion experiments on rat brain slices. Slices with a thickness of 350 μm from the rat striatum were used for this. In each case, two slices were employed in a superfusion chamber with an extremely small dead volume, about 100 μl. Physiological buffer (concentrations in mM: NaCl 121, KCl 1.8, CaCl2, 1.3, MgSO4 1.2, NaHCO3 25, […] 1.2, glucose 11, pH 7.4, 95% O2/5% CO2-saturated) is then passed over them at 37° C. After a preliminary perfusion, which serves in particular to remove tissue particles and amino acids released by the injury to the tissue, superfusate fractions are collected at a flow rate of 400 to 800 μl every five minutes. […] The superfusates obtained are filtered (0.45 μm pore size) and the amino acid concentrations are determined by HPLC. […]

[2] = tested on: potassium-evoked release of [^3H]-noradrenaline; assay: potassium-evoked release of [^3H]-noradrenaline from rat neocortex slices (superfusion); type: cell-based; details: rat neocortical slices
Description: (§1) The effects of GBP and GBP-L were compared by a very similar approach using rat and human neocortical slices.
(§2) Note that the deviations indicate confidence intervals (CI95), not standard errors.

[3] = tested on: potassium-evoked release of [^3H]-noradrenaline; assay: potassium-evoked release of [^3H]-noradrenaline from human neocortical slices (superfusion); type: cell-based; details: human neocortex slices
Description: as §1, §2

[4] = tested on: mitochondrial KATP channels; assay: mitochondrial KATP channels, depression of the mitochondrial membrane potential; type: biochemical
Procedure: The mode of action of GBP-L and GBP was tested with regard to mitochondrial KATP channels (Szewczyk and Marban 1999). […] Effects of GBP-L on the mitochondrial membrane potential were already seen at 5 μM. […] Thus, the neuroprotective effect of GBP-L seems to be mediated predominantly through mitochondrial KATP channels.

[5] = tested on: Mice transgenic for exon 1 of the human HD gene (line R 6/2); assay: mouse model of Huntington's disease, walking on a balance beam; type: in vivo
Description: (§3) Mice transgenic for exon 1 of the human HD gene (line R 6/2), carrying CAGn=115-156 expansions, develop pronounced neuronal intranuclear inclusions, containing the proteins huntington and ubiquitin prior to the characteristic neurological phenotype with bradykinesia and seizures corresponding to the juvenile type of HD (Davies et al. 1997). The life time of these mice is up to 17 weeks. It was investigated whether gabapentin (GBP) and its derivative gabapentin-lactam (GBP-L, Jehle et al. 2000), may exert neuroprotective effects by using a battery of behavioral tests selected to measure motor aspects of fore-and hindlimb coordination and balance. In a first series of experiments mice were treated with GBP-L (100 mg/kg*day, 8 mice) and vehicle only (B mice) from the 6th week of their life until death using Alzet pumps implanted subcutaneously and delivering the test compounds systemically and continuously for up to four weeks. Empty Alzet pumps were repeatedly replaced. Animals were tested twice weekly by walking on a balance beam (width: 5 and 14 mm, Carter et al. 1999) up to week 15.5. A second series of experiments involved mice again treated with GBP-L (100 mg/kg*clay, 7 mice) and mice treated with GBP (100 mg/kg*day, 8 mice) from the 6th week of their life until death with week 17 being the maximum endpoint. In addition, immunohistochemical studies, using a monoclonal mouse antibody raised against ubiquitin, were done to analyse areas of ubiquitinated nuclear inclusions in three brain regions (hippocampus, neocortex and striatum) in a blinded fashion in order to compare mice treated with GBP-L or GBP.
This effect (E), as measured by the time necessary to pass the balance beam, was evaluated in each single mouse according to the function E=be^a time, yielding individual graphs with parameter estimates for a and b. The area under the curve, representing the motor ability of an individual mouse, was weighted by the life of this mouse. For instance, the area under the curve of a mouse which died at week 12.5 was divided by the ratio 12.5/15.5 in order to allow for possibly different life times of the mice.
Note that the observation period of the second series of experiments was 17 instead of 15.5 weeks only in the first set. Accordingly, the weighting by the life time now used the divisor 17 Instead of 15.5.

[6] = tested on: neuronal intranuclear inclusions; assay: mouse model of Huntington's disease, immunohistochemistry of ubiquitinated neuronal intranuclear inclusions; type: in vivo; details: for mean hippocampal areas of neuronal intranuclear inclusions / mean neocortical areas of neuronal intranuclear inclusions / mean striatal areas of neuronal intranuclear inclusions: per individual mouse, 100 mg/kg*day, frozen brain sections, 100 mg/kg
Description: as §3
Three mice per group were evaluated. The mean regional area of neuronal intranuclear inclusions was calculated (μm^2) for each mouse. These means were compared between regions and between treatment groups.

[7] = second series, 100 mg/kg*day, observation period 17 weeks

In the case of `O=C1CC2(CCCCC2)CN1` [GBP-L, 8-azaspiro[5,4]decan-9-one], the “extracellular glutamate concentration found in superfusate” value ([1]; rat striatum slices flushed with approximately 1 μM solution, control tests 0.24 μM) is reported as 0.12 µM, the “K^+-evoked [^3H]-NA release (in words)” value [2] is reported as “inhibited similarly” and the “K^+-evoked [^3H]-NA release (in words)” value [3] is reported as “inhibited similarly”. The “activity at mitochondrial KATP channels (in words)” value [4] was “potent activator”, the “concentration at which effects on the mitochondrial membrane potential were already seen” value [4] was 5 µM and the EC50 ([4]; read-out: half-maximal depression of the mitochondrial membrane potential) was 85 µM. For the same compound, the “motor abilities compared to vehicle animals (in words)” value ([5]; first series, 100 mg/kg*day) was “markedly and significantly improved”, the “mean weighted area representing the motor ability on the 5 mm beam” value ([5]; first series, 100 mg/kg*day s.c. Alzet pumps from 6th week, up to week 15.5, vehicle 44.60) was 26.64 and the “mean weighted area representing the motor ability on the 14 mm beam” value ([5]; first series, 100 mg/kg*day, up to week 15.5, vehicle 31.54) was 17.16. For the same compound, the “mean weighted area representing the motor ability on the 5 mm beam” value [5, 7] was 43.75, the “mean weighted area representing the motor ability on the 14 mm beam” value [5, 7] was 30.46 and the “mean hippocampal areas of neuronal intranuclear inclusions” value [6] was 4.47 μm^2 and 4.01 μm^2 and 3.61 μm^2. The “mean neocortical areas of neuronal intranuclear inclusions” value [6] was 3.70 μm^2 and 2.96 μm^2 and 2.65 μm^2, the “mean striatal areas of neuronal intranuclear inclusions” value [6] was 3.52 μm^2 and 4.20 μm^2 and 3.83 μm^2 and the “area of neuronal intranuclear inclusions in hippocampus, striatum and neocortex compared to GBP mice (in words)” value ([6]; three mice per group) was “markedly and significantly reduced”.

`NCC1(CC(=O)O)CCCCC1` [GBP, gabapentin, reference compound] was tested, and the “difference in glutamate between treated and comparative samples” value ([1]; gabapentin solution (100 μM) not irradiated, no lactam) was “no difference could be found”, the “K^+-evoked [^3H]-NA release (in words)” value [2] was “inhibited similarly” and the “K^+-evoked [^3H]-NA release (in words)” value [3] was “inhibited similarly”. For the same compound, the “activity at mitochondrial KATP channels (in words)” value [4] was “hardly effective”, the “mean weighted area representing the motor ability on the 5 mm beam” value [5, 7] was 77.33 and the “mean weighted area representing the motor ability on the 14 mm beam” value [5, 7] was 65.71. The “mean hippocampal areas of neuronal intranuclear inclusions” value [6] was 8.78 μm^2 and 8.93 μm^2 and 8.26 μm^2, the “mean neocortical areas of neuronal intranuclear inclusions” value [6] was 5.91 μm^2 and 5.94 μm^2 and 9.60 μm^2 and the “mean striatal areas of neuronal intranuclear inclusions” value [6] was 6.43 μm^2 and 7.27 μm^2 and 3.84 μm^2.
